Where “and” joins values, the source holds several entries; their conditions need not be identical. Equal entries are not always repeated.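 Method: 48-hour compound exposure of cells in 96-well plates, five concentrations, linear interpolation of endpoints. Here, GI50 denotes the concentration required for 50% inhibition of growth. TGI: concentration producing complete growth inhibition.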
Columns and labels:
Assay in all cases: growth of human tumour cells (NCI), 48 h
[1] = test system: A498 renal
[2] = test system: EKVX NSCLC
[3] = test system: HCT-15 colon
[4] = test system: HL-60(TB) leukemia
[5] = test system: IGROV1 ovarian
[6] = test system: KM12 colon
[7] = test system: SK-MEL-5 melanoma
[8] = test system: SR leukemia
[9] = test system: PC-3 prostate

## C#Cc1cc(CN(CC(=O)OC(C)(C)C)CC(=O)OC(C)(C)C)nc(CN(CC(=O)OC(C)(C)C)CC(=O)OC(C)(C)C)c1
[1]
  TGI: 76.1 µM
[2]
  TGI: 49.3 µM
[3]
  TGI: > 100 µM
[4]
  TGI: 9.72 µM
[5]
  TGI: 26.7 µM
[6]
  TGI: 23 µM
[7]
  TGI: 11.3 µM

## Cn1nc2ccccc2cc1=O
[1]
  TGI: > 100 µM
[2]
  TGI: > 100 µM
[3]
  TGI: > 100 µM
[5]
  TGI: > 100 µM
[6]
  TGI: > 100 µM
[7]
  TGI: > 100 µM

## Nc1nc(=Nc2ccccc2)ss1
[1]
  TGI: > 100 µM
[2]
  TGI: > 100 µM
[4]
  TGI: 60.2 µM
[5]
  TGI: > 100 µM
[6]
  TGI: > 100 µM
[7]
  TGI: > 100 µM
[8]
  TGI: > 100 µM

## CCCCCCCCCCCCCCCCCC[N+](C)(C)Cc1ccc(C[N+](C)(C)CCCCCCCCCCCCCCCCCC)cc1
[1]
  TGI: 91.7 µM
[2]
  TGI: 43.1 µM
[3]
  TGI: > 100 µM
[5]
  TGI: > 100 µM
[6]
  TGI: 39.4 µM
[7]
  TGI: 66.6 µM
[8]
  TGI: 5.63 µM

## COC1CC(OC)C(O)C(CO)O1 (centres undefined)
[2]
  TGI: > 100 µM
[3]
  TGI: > 100 µM
[4]
  TGI: > 100 µM
[5]
  TGI: > 100 µM
[6]
  TGI: > 100 µM
[7]
  TGI: > 100 µM
[8]
  TGI: > 100 µM

## COc1ccccc1NC(=O)C(CC(C(=O)Nc1ccccc1OC)/C(C)=N/NC(=O)c1ccccc1O)/C(C)=N/NC(=O)c1ccccc1O (centres undefined)
[1]
  TGI: > 100 µM
[2]
  TGI: > 100 µM
[4]
  TGI: > 100 µM
[5]
  TGI: > 100 µM
[6]
  TGI: > 100 µM
[7]
  TGI: > 100 µM

## COC(=O)C1=C(C)N(NC(N)=O)C(C)(O)C12CCOC2=O (centres undefined)
[1]
  TGI: > 100 µM
[2]
  TGI: > 100 µM
[3]
  TGI: > 100 µM
[4]
  TGI: > 100 µM
[5]
  TGI: > 100 µM
[6]
  TGI: > 100 µM

## Cc1ccc(N2C(=O)C(Cl)=C(Cl)C2=O)cc1
[1]
  TGI: > 100 µM
[2]
  TGI: 39.2 µM
[3]
  TGI: 33.3 µM
[5]
  TGI: 43.4 µM
[6]
  TGI: 45.2 µM
[7]
  TGI: > 100 µM
[8]
  TGI: 54.2 µM

## Cc1ccccc1NC(=O)c1ccc([N+](=O)[O-])cc1
[1]
  TGI: > 100 µM
[2]
  TGI: > 100 µM
[3]
  TGI: > 100 µM
[4]
  TGI: > 100 µM
[5]
  TGI: > 100 µM
[6]
  TGI: > 100 µM
[7]
  TGI: > 100 µM

## C=C[C@H]1C=Cc2c(OC)cccc2[C@@H]1COP1(=S)NC(C)C(c2ccccc2)O1 (some centres undefined)
[2]
  TGI: > 100 µM
[4]
  TGI: 50.2 µM
[5]
  TGI: > 100 µM
[6]
  TGI: > 100 µM
[7]
  TGI: > 100 µM

## Nc1ccccc1C#Cc1ccccc1C#Cc1cnccn1
[2]
  GI50: 14.1 µM
  TGI: 27.7 µM
[3]
  GI50: 16.6 µM
  TGI: 34.6 µM
[4]
  GI50: 21.5 µM
  TGI: > 100 µM
[6]
  GI50: 11 µM
  TGI: 23.9 µM
[9]
  GI50: 12.7 µM
  TGI: 27.5 µM
[7]
  GI50: 4.6 µM
  TGI: 18 µM

## COc1cc(Nc2nc3cc(C(F)(F)F)ccc3nc2C)cc(OC)c1OC
[1]
  TGI: 18.8 µM
[2]
  TGI: 30.6 µM
[3]
  TGI: 12.2 µM
[5]
  TGI: 32 µM
[6]
  TGI: 21.5 µM
[7]
  TGI: 25.2 µM
[8]
  TGI: 30.3 µM

## FC(F)(F)c1cccc(C2SCc3nc4ccccc4n32)c1 (centres undefined)
[2]
  TGI: > 100 µM
[4]
  TGI: > 100 µM
[5]
  TGI: > 100 µM
[6]
  TGI: > 100 µM
[7]
  TGI: > 100 µM
[8]
  TGI: > 100 µM

## COc1ccc(C2C3=C(COC3=O)Oc3cc4c(cc32)OCO4)cc1 (centres undefined)
[2]
  TGI: > 100 µM
[3]
  TGI: > 100 µM
[4]
  TGI: 25 µM
[5]
  TGI: > 100 µM
[7]
  TGI: > 100 µM

## O=C(Cc1ccccc1)NS(=O)(=O)c1ccccc1
[1]
  TGI: > 100 µM
[2]
  TGI: > 100 µM
[4]
  TGI: > 100 µM
[5]
  TGI: > 100 µM
[6]
  TGI: > 100 µM
[8]
  TGI: > 100 µM

## Cc1c(CC/C(=N\Nc2ccc([N+](=O)[O-])cc2[N+](=O)[O-])c2ccccc2)c2ccccc2n1C
[1]
  TGI: > 100 µM
[2]
  TGI: > 100 µM
[3]
  TGI: > 100 µM
[4]
  TGI: > 81.2 µM
[5]
  TGI: > 100 µM
[6]
  TGI: > 100 µM
[7]
  TGI: > 100 µM

## c1ccc2c(c1)[nH]c1c2ncc2[nH]c3ccccc3c21
[1]
  TGI: 9.07 µM
[2]
  TGI: 33.1 µM
[3]
  TGI: 7.7 µM
[5]
  TGI: 22.5 µM
[6]
  TGI: 10.3 µM
[7]
  TGI: 17.2 µM

## CCOC(=O)C(C(=O)OCC)=c1sc(=C(C(=O)OCC)C(=O)OCC)s1
[2]
  TGI: > 100 µM
[3]
  TGI: > 100 µM
[4]
  TGI: > 100 µM
[5]
  TGI: > 100 µM
[6]
  TGI: > 100 µM
[7]
  TGI: > 100 µM

## COC(C)(C)[C@H](O)C(O)CC(C)[C@@H]1CCC23CC12CCC1[C@@]2(C)CCC(OC(C)=O)C(C)(C)C2CC(OC2OC(COC(C)=O)C(O)C(O)C2O)[C@]13C (some centres undefined)
[1]
  GI50: 17 µM
  TGI: 18.7 µM and 34.7 µM
[2]
  GI50: 10.9 µM
  TGI: 15.4 µM and 24.7 µM
[3]
  GI50: 6.86 µM
  TGI: 6.28 µM and 19.8 µM
[4]
  GI50: 2.55 µM
  TGI: 3.09 µM and 6.18 µM
[5]
  GI50: 3.59 µM
  TGI: 8.11 µM and 15 µM
[6]
  GI50: 4.23 µM
  TGI: 7.55 µM and 14.1 µM
[7]
  GI50: 10.2 µM
  TGI: 12.8 µM and 23.3 µM

## O=C(O)[C@@H](NS(=O)(=O)c1ccc([N+](=O)[O-])cc1)c1ccccc1
[1]
  TGI: > 100 µM
[2]
  TGI: > 100 µM
[3]
  TGI: > 100 µM
[4]
  TGI: > 100 µM
[5]
  TGI: > 100 µM
[6]
  TGI: > 100 µM
[7]
  TGI: > 100 µM

## CC(C)c1cccc(C(C)C)c1NC(=O)CCC(=O)NN
[1]
  TGI: > 100 µM
[2]
  TGI: > 100 µM
[3]
  TGI: 37.7 µM
[4]
  TGI: > 100 µM
[5]
  TGI: > 100 µM
[6]
  TGI: > 100 µM
[7]
  TGI: > 100 µM

## CCOC(=O)c1cc(OC(=O)CC)c2c(OC)ccc(OC)c2c1
[2]
  TGI: > 100 µM
[3]
  TGI: 96.6 µM
[5]
  TGI: > 100 µM
[6]
  TGI: > 100 µM
[7]
  TGI: > 100 µM
[8]
  TGI: > 100 µM
